Assay type in all cases: cell-based
For one assay, the system named is IL-6. Put plainly: Cytokine release from LPS-stimulated PBMCs (HTRF). The note with it: PBMC, human PBMCs. How it is done: (§1) The ability of compounds 1004, 1007 and 1018 to inhibit the release of cytokines TNF-α, IFN-γ, IL-6, IL-21, IL-17A and IL-23 was evaluated in vitro (Tables 2 and 3). Briefly, human peripheral blood mononuclear cells (PBMCs) were isolated from human peripheral blood by Histopaque density gradient centrifugation. The freshly isolated PBMCs were seeded at 50,000 cells/well in a 96-well half area plate. PBMCs were dosed with the test compounds (at 10 μM, 1 μM and 0.1 μM) and then incubated at 37° C. and 5% CO2 for 2 hours. To stimulate release of the cytokines IFN-γ, IL-21, IL-17A and IL-23, the PBMCs were treated with 50 ng/mL of phorbol 12-myristate 13-acetate (PMA) and 1 μg/mL of ionomycin and to stimulate the release of TNF-α and IL-6, PBMCs were treated with 100 ng/mL of lipopolysaccharide (LPS) from gram-negative bacteria. The PBMCs were then incubated at 37° C. and 5% CO2 for a further 6 hours and the cell supernatant was collected and a Homogenous Time Resolved Fluorescence (HTRF) assay was carried out following the manufacturer's instructions. Cytokine release from the PBMCs was captured using a Perkin Elmer ENVISION 2104 microplate reader set at 615 nm and 665 nm respectively.

The test system of a further assay is TNF-α. Nature of the assay: Cytokine release from LPS-stimulated PBMCs (HTRF). The note with it: PBMC, human PBMCs. As for the experimental part:
as §1
For orientation: In TR-FRET formats the signal depends on donor and acceptor labels being close together.

For the next assay, the system named is IFN-γ. Nature of the assay: Cytokine release from PMA/ionomycin-stimulated PBMCs (HTRF). Conditions: PBMC, human PBMCs, PMA and ionomycin. How it is done: as §1
The next assay has as its system IL-17A. The description is as above. Conditions: PBMC, human PBMCs, PMA and ionomycin. As for the experimental part:
as §1

The test system of the next assay is IL-21. Described as above. The note with it: PBMC, human PBMCs, PMA and ionomycin. As for the experimental part: as §1
The test system of another assay is IL-23. The assay is described as above. Conditions: PBMC, human PBMCs, PMA and ionomycin. As for the experimental part:
as §1

Consider one molecule from US20170158636A1, “FUNCTIONALISED AND SUBSTITUTED CARBAZOLES AS ANTI-CANCER AGENTS” (Novogen Ltd., priority 2014, published 2017).

The inhibition is the change of the read-out against control, counted positive when it falls. `CCN(CC)CCCn1c2ccccc2c2cc(C(=O)N3CCN(CCc4ccc(F)cc4)CC3)ccc21` [Compound 1007, (9-(3-(diethylamino)propyl)-9H-carbazol-3-yl)(4-(4-fluorophenethyl)piperazin-1-yl)methanone]: the inhibition at 0.1 µM is 38% in the assay on IL-6 (0.1 μM); 43% in the assay with TNF-α (0.1 μM); 8% with IFN-γ (0.1 μM); -4% with IL-17A (0.1 μM); -7% in the assay on IL-21 (0.1 μM); -15% with IL-23 (0.1 μM). In addition, the inhibition at 1 µM in the assay with IL-6 (1 μM) is 59%; in the assay on TNF-α (1 μM), 60%; with IFN-γ (1 μM), 53%; in the assay with IL-17A (1 μM) it was 22%; in the assay with IL-21 (1 μM), -9%; in the assay on IL-23 (1 μM) it was -11%. The inhibition at 10 µM with IL-6 (10 μM) was 89%; in the assay with TNF-α (10 μM), 82%; in the assay with IFN-γ (10 μM), 90%; in the assay with IL-17A (10 μM), 59%; in the assay with IL-21 (10 μM), -4%; in the assay on IL-23 (10 μM), -3%.
